One experiment concerns the target T1, BIM/MCL-1 (Homo sapiens, UniProt O43521).
T1 construct: expressed in transfected cells; host or cells: 293 cells; lysates used
The experiment is described as follows: Immunoprecipitation of HA-BIM / V5-Mcl-1 from 293 lysates. The class given is binding. The following applies: 25 uM, 15 min, anti-HA immunoprecipitation, western blot. The procedure: (§1) (FIG. 10A) Structure of the PUMA inhibitor lead compound (PUMAi). (FIG. 10B) Lysates of 293 cells transfected with individual plasmids for 24 hours were mixed in the indicated combinations. Lysates were incubated with vehicle or PUMA inhibitor (PUMAi, 25 μM) for 15 min before immunoprecipitation with an anti-HA antibody. The HA-bound proteins and input were analyzed by western blotting. (FIG. 10C) Lysates of 293 cells transfected with individual plasmids for 24 h were mixed in the indicated combinations. Lysates were incubated with vehicle or PUMA Inhibitor (PUMAi, 25 μM) for 15 min before immunoprecipitation with an anti-HA antibody. The HA-bound proteins and input were analyzed by western blotting. (FIG. 10D) Indicated colon cancer cell lines were treated with camptothecin (CPT, 500 nM) for 24 h. HCT 116 cells and PUMA KO HCT 116 cells have WT p53, others have no (KO) or mutant p53. Apoptosis was measured by nuclear fragmentation assay. Values are mean+SEM; n=3 independent experiments. (FIG. 10E) Cells were treated as in D for 24 h and analyzed by western blotting. Representative results are shown, and similar results were obtained in at least three independent experiments. […]
For orientation: Immunoblotting shows a protein as a band on a membrane.

The test system of experiment [1] is colon cancer cell lines HCT 116, p53 KO, HT29, SW480, DLD1, PUMA KO. The experiment is described as follows: CPT-induced apoptosis in colon cancer cell lines (nuclear fragmentation assay). It counts as cell-based, human. As to conditions: CPT 500 nM 24 h, PUMAi 25 uM; p53 WT, null, mutant or PUMA null lines. The procedure:
as §1, with “HCT 116 cells and PUMA KO HCT 116 cells have WT p53, others have no (KO) or mutant p53.” left out, “Values are mean+SEM; n=3 independent experiments.” left out, “blotting.” for “blotting. Representative results are shown, and similar results were obtained in at least three independent experiments.”
After treatment, floating and adhering cells were collected and stained in a solution containing 3.7% formaldehyde, 0.5% NP-40, and Hoechst 33258 (10 ug/ml) (Molecular Probes) in PBS. Apoptosis was assessed through microscopic visualization of condensed and fragmented nuclei, as previously described (Yu J. et al., Proc Natl Acad Sci USA (2003) 100:1931-36, incorporated herein by reference). A minimum of 300 cells per treatment were analyzed in triplicate. […]

In the next experiment the test system is LGR5+ stem cells. The experiment in a line: LGR5+ stem cells, niche and DNA damage after CPT-11 in mice. The class given is in vivo, mouse. The procedure:
LGR5(GFP)/TUNEL IF. Sections were prepared as described above. […] Sections were then washed in PBS, and TUNEL staining was performed with the ApopTag Fluorescein In Situ Apoptosis Detection Kit (Chemicon) according to the manufacturer's instructions (37, 46).
CD166 IF. Sections were prepared as described above.
p53 BP1 IF: Sections were prepared as described above. […] Sections were then incubated with AlexaFluor-594 goat anti-rabbit secondary antibodies (1:200; A11012; Invitrogen) for 1 hour at room temperature and counterstained with VectaShield plus DAPI.
Fresh mucosal scrapings from 10 cm of jejunum were washed in cold PBS, resuspended in 700 ul of RNA lysis buffer, and homogenized in a Dounce homogenizer. RNA was isolated using the Quick-RNA MiniPrep kit (Zymo Research) according to the manufacturer's instructions. Organoids were freed from Matrigel using Cell Recovery Solution (Corning), as described in, before RNA isolation. Complementary DNA was generated from 2 ug of total RNA from mice or ˜100 ng of total RNA from colonic organoids and was pooled from three mice or three wells of organoid culture per treatment group using SuperScript III reverse transcriptase (Invitrogen) and random primers. Gene expression was normalized to Gapdh. Representative results are shown, and similar results were obtained in at least three independent experiments. Details on mouse and human primers are found in Tables 1 and 2.

For experiment [2], the system named is colon cancer cell line HCT-116. The experiment in a line: PUMA-induced apoptosis inhibition in HCT-116.
Experimental: PUMAi was added to cells at 25 uM at the same time as CPT.
The subject of another experiment is intestinal crypts. The experiment is described as follows: CPT-11-induced intestinal crypt apoptosis in mice (TUNEL, active caspase-3).

Counter-ions that a name gives are not always drawn.

T1 sequence (O43521 whole entry, species assumed): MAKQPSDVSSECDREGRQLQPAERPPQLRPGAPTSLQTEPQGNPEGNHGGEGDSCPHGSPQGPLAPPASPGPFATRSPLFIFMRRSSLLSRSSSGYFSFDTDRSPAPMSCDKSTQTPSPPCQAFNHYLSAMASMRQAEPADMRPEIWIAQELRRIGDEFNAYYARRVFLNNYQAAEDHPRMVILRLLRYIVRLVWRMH
Experimental for intestinal crypts: Puma+/+ (WT) and Puma−/− (Puma KO) mice (52) were generated in-house by heterozygote breeding. WT and Puma KO alleles were genotyped from genomic DNA isolated from tail snips, as described (52). p53−/− (p53 KO) mice were purchased from the Jackson Laboratory. […] All strains are in or have been backcrossed with the C57BL/6 background for more than 10 generations (F10). Mice were housed in microisolator cages in a room illuminated from 07:00 to 19:00 hours (12:12-hour light/dark cycle), with access to water and chow ad libitum.
Rehydrated sections were treated with 3% hydrogen peroxide (immunochemistry only), followed by antigen retrieval for 10 min in boiling 0.1 M citrate buffer (pH 6.0) with 1 mM EDTA. Apoptosis was analyzed by TUNEL staining with the ApopTag Peroxidase In Situ Apoptosis Detection kit (Chemicon International) according to the manufacturer's instructions.
Active caspase 3 IHC. Sections were deparaffinized and rehydrated through graded ethanols. Rehydrated sections were then treated with 3% hydrogen peroxide, followed by antigen retrieval for 10 minutes in boiling 0.1 M citrate buffer (pH 6.0) with 1 mM EDTA. Non-specific antibody binding was blocked using 20% goat serum (Invitrogen) at room temperature for 30 minutes.

Regarding `OCCN1CCN(CC(O)COc2ccc3ccccc3c2)CC1` (stereo not drawn) [PUMAi, 1-[4-(2-hydroxyethyl)-1-piperazinyl]-3-(2-naphthyloxy)-2-propanol dihydrochloride], the “inhibition of BIM/MCL-1 interaction” value at BIM/MCL-1 was “not of BIM/MCL-1”. In addition, in experiment [1], the “camptothecin (CPT)-induced apoptosis in colon cancer cell lines” value is reported as “did not reduce camptothecin (CPT)-induced apoptosis”. The “crypt DNA damage by 53BP1 foci” value in the experiment on LGR5+ stem cells (6 hours after single CPT-11 dose, vs control group) is recorded as “comparable”; with LGR5+ stem cells (48 hours after a single dose, more so 120 hours after three doses of CPT-11), “lower”. The “decrease of CPT-11-induced apoptosis of LGR5+ cells” value in the experiment with LGR5+ stem cells (LGR5-EGFP reporter mice, CPT-11 200 mg/kg, PUMAi 10 mg/kg 2 h before) is reported as over 70%. Further, the “suppression of TA marker CD44 mRNA” value in the experiment with LGR5+ stem cells (after CPT-11, intestinal mucosa) is on record as “not by PUMAi”. The “activation of WNT and NOTCH responsive genes (qRT-PCR)” value in the experiment with LGR5+ stem cells (as early as 6 hours after CPT-11) is recorded as “largely suppressed”. Moreover, in the experiment with LGR5+ stem cells (by 96 hours), the “CPT-11-induced expansion of CD166+ cells” value was “fully suppressed”. Besides, the “Apoptosis inhibition of HCT-116” value in experiment [2] came out at 17%. The “crypt apoptosis, PUMAi given after CPT-11” value in the experiment on intestinal crypts (PUMAi 10 mg/kg 1 hour after CPT-11 200 mg/kg, 6 h) was “still reduced apoptosis effectively”. Further, the “TUNEL and active caspase-3 staining in crypts” value with intestinal crypts (PUMAi 10 mg/kg 2 h before CPT-11 200 mg/kg, 6 and 24 h, WT mice) is “reduced TUNEL and active caspase-3 staining preferentially in the CBCs”. The “crypt apoptosis in Puma KO mice” value in the experiment on intestinal crypts (Puma KO mice, CPT-11 200 mg/kg, 6 h) is reported as “did not further reduce crypt apoptosis”.
